In US9045505B2, “Nitric oxide donors” (University of Otago, priority 2006, dated 2015):

Columns and labels:
[1] = test system: complex I; details: 10 μM
Description: (a) Effect of MitoSNAP on mitochondrial respiration. Heart mitochondria (1 mg protein/ml) were incubated in 1 ml KCl medium supplemented with 1 mM phosphate in an oxygen electrode with 5 mM glutamate and 5 mM malate, or succinate, and incubated with 10 μM MitoSNAP, 10 μM MitoNAP or carrier for 2 min (succinate) or 3 min (glutamate/malate), then 250 μM adenosine diphosphate (ADP) was added and the rate of respiration was measured. Respiration in the presence of MitoSNAP is expressed as a percentage of that with MitoNAP, and are means±sem from 3 separate mitochondrial preparations, each determined in triplicate; *p<0.05 by Student's paired t test. […] Bovine heart mitochondrial membranes (0.25 mg protein/ml) were incubated in 1 ml KCl medium in an O2 electrode at 37° C., and incubated with 75 μM MitoSNAP or MitoNAP, or ethanol carrier for 5 min in the presence or absence of rotenone, then 1 mM NADH or 10 mM succinate was added and the rate of respiration was measured. Data are expressed as respiration in the presence of MitoSNAP or MitoNAP as a percentage of the appropriate controls and are means±range of two separate experiments, each determined in triplicate. […] Then protein SNOs were labelled by maleimide-Cy3 and intact mitochondrial respiratory complexes were separated by BN-PAGE which was then scanned for Cy3 fluorescence. […]

[2] = test system: C2C12 cells; test: S-nitrosation of cellular protein thiols in C2C12 cells; format: cell-based, mouse; details: 5 μM
Description: FIG. 11 is a series of graphs showing S-nitrosation of mitochondrial thiols by MitoSNAP. (a) Time course of S-nitrosation of mitochondrial proteins by MitoSNAP. Liver mitochondria (1 mg protein) were incubated in 1 ml KCl buffer supplemented with rotenone and succinate in the presence of 5 μM MitoSNAP. At various times mitochondria were treated with 10 mM N-ethylmaleimide (NEM), isolated by centrifugation and the S-nitrosothiol content assessed. Data are of a typical experiment showing means±range of duplicate samples for each time point, each measured in duplicate. The experiment was repeated twice. (b) S-nitrosation of mitochondrial proteins by different concentrations of MitoSNAP and SNAP. Aliquots of liver mitochondria were incubated with the indicated concentrations of MitoSNAP or SNAP for […] in the presence or absence of 500 nM FCCP and then assessed for S-nitrosothiol content as in (a). For the +NEM sample, 10 mM NEM was added to the mitochondria and 1 min later 5 μM MitoSNAP was added and incubated for a further 2.5 min. Data are of a typical experiment showing means±range of duplicate samples for each time point, each measured in duplicate. The experiment was repeated twice. (c) S-nitrosation of cellular protein thiols by MitoSNAP. […] After further incubation for 5 min at 37° C. in the dark, the medium was removed and the content of S-nitrosated proteins was measured. […] After 5 min at 37° C. in the dark, the medium was removed and the cells were processed to isolate a mitochondria-enriched fraction and S-nitrosated protein was then determined Data are mean±sem of triplicate determinations (+MitoSNO1), or mean±range of duplicate determinations (+FCCP). […] S-nitrosated thiols were then selectively tagged with Cy3 maleimide and protein (10 μg) was then separated on a 12.5% SDS PAGE gel which was stained with coomassie blue and scanned for Cy3 fluorescence. The Cy3 fluorescence (SNO) and coomassie staining (coomassie) of each gel is shown. […]

[3] = test system: mice; test: Cardiac ischemia-reperfusion injury in vivo (LAD occlusion); parameters: species or system mouse; details: 100 ng/kg into left ventricle 5 min prior to reperfusion, 30 min LAD occlusion, 24 h recovery
Description: Male C57BL/6 mice (˜25 g) were purchased from the Jackson Laboratory and handled in accordance with the procedures of the University of Rochester Committee on Animal Research. All surgical procedures were sterile and performed as described previously. Briefly, analgesics (acetaminophen 0.75 mg/ml in drinking water) were administered 24 hr before, and during the perioperative period.
Following anesthesia (Avertin, 2,2,2-tribromoethanol, […] IP) mice were intubated with a 20 gauge PE catheter which was connected to a rodent ventilator (Harvard MiniVent, 120 cycles/min., 0.3 ml tidal volume). A thoracotomy was performed and the left anterior descending coronary artery (LAD) was then ligated and occluded with a 9-0 proline suture for 30 min. MitoSNAP or MitoNAP (100 ng/kg) were dissolved in 0.9% NaCl saline (final volume 50 μl) and then administered 5 min prior to reperfusion into left ventricle (LV) using 30G½ needle. Reperfusion was initiated by removing the suture. The chest and skin were sutured closed, the endotracheal tube removed and the animal returned to its cage to recover. After 24 hrs. the animal was re-anesthetized, the LAD re-ligated, and Evans' blue dye (1.0% w/v, 1.5 ml) perfused via the LV. […] Slices were scanned and infarct/AR ratios determined with NIH ImageJ software.

[4] = test system: complex I; test: S-nitrosation of bovine heart mitochondrial membranes and complex I; format: biochemical

`CC(=O)NC(C(=O)NCCCCC[P+](c1ccccc1)(c1ccccc1)c1ccccc1)C(C)(C)SN=O.CS(=O)(=O)[O-]` (stereo not drawn) [MitoSNAP, [5-(2-acetylamino-3-methyl-3-nitrosothio-butyrylamino)-penty1]-triphenylphosphonium methanesulfonate] was tested, and the “inhibition of respiration relative to MitoNAP” value ([1]; glutamate/malate) was “about 30%”, the effect on respiration ([1]; succinate) was “very little effect” and the “time of maximum S-nitrosation of cell proteins” value [2] was 5 to 10 min. The “S-nitrosation of proteins of a mitochondria-enriched cell fraction” value ([2]; 5 min) was “extensively S-nitrosated”, the “extent of cell protein S-nitrosation” value ([2]; 5 min) was “considerably greater than that by SNAP” and the “protection against heart damage (infarct/area at risk)” value [3] was “Protects Against Cardiac Ischemia-Reperfusion Injury”. The “S-nitrosation of complex I (BN-PAGE, Cy3)” value ([4]; 75 μM, 5 min) was “complex I was S-nitrosated”, the “formation of protein SNOs” value ([4]; 75 μM, 5 min, mean±SD, n=4) was 4.8±0.9 nmol protein SNOB/mg protein and the “decrease of SNO content by GSH treatment” value ([4]; 1 mM GSH) was ~53%.
